Results reported in patent publication US20170247393A1, “Aminoisoxazoline Compounds as Agonists of Alpha7-Nicotinic Acetylcholine Receptors” (Forum Pharmaceuticals, Inc., priority 2015, published 2017).
Counter-ions that a name gives are not always drawn.

target: T1, human 5-HT3 serotonin receptors (Homo sapiens, UniProt P46098); assay: biochemical; assay type: binding; details: not given
T1 sequence (P46098 24-478): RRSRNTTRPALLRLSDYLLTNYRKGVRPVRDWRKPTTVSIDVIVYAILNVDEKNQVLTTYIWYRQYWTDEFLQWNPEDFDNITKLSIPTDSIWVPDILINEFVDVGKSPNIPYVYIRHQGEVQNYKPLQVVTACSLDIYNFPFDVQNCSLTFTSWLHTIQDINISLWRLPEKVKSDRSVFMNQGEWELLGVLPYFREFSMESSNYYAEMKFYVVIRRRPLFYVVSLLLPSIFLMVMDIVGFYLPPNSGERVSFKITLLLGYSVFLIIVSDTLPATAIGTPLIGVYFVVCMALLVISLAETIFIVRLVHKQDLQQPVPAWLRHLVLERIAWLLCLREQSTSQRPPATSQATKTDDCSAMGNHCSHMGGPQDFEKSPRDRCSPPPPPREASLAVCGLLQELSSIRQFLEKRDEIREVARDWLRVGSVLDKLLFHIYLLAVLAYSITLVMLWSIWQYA

Row | Structure (SMILES) | Ki [µM]
1 | Clc1ccc(NC2=NOC3(C2)CN2CCC3CC2)cc1Cl (single isomer, unassigned) [Compound 21-P1, N-(3,4-dichlorophenyl)-4H-1′-azaspiro[isoxazole-5,3′-bicyclo[2.2.2]octan]-3-amine] | 0.0415
2 | Clc1cc2cnc(NC3=NO[C@@]4(C3)CN3CCC4CC3)cc2cc1Cl [(R)-62, (R)—N-(6,7-dichloroisoquinolin-3-yl)-4H-1′-azaspiro[isoxazole-5,3′-bicyclo[2.2.2]octan]-3-amine trifluoroacetate] | > 10
3 | Clc1ccc(NC2=NO[C@@]3(C2)CN2CCC3CC2)cc1 [(R)-20, (R)—N-(4-chlorophenyl)-4H-1′-azaspiro[isoxazole-5,3′-bicyclo[2.2.2]octan]-3-amine hydrochloride] | 0.11
4 | Cc1cc2cnc(NC3=NO[C@@]4(C3)CN3CCC4CC3)cc2o1 [(R)-100, (R)-N-(2-methylfuro[3,2-c]pyridin-6-yl)spiro[4H-isoxazole-5,3′-quinuclidine]-3-amine hydrochloride] | > 10
5 | Cc1cc2cnc(NC3=NO[C@@]4(C3)CN3CCC4CC3)cc2s1 [(R)-99, (R)-N-(2-methylthieno[3,2-c]pyridin-6-yl)spiro[4H-isoxazole-5,3′-quinuclidine]-3-amine hydrochloride] | > 10
6 | Clc1cccc(NC2=NO[C@@]3(C2)CN2CCC3CC2)c1 [(R)-34, (R)—N-(3-chlorophenyl)-4H-1′-azaspiro[isoxazole-5,3′-bicyclo[2.2.2]octan]-3-amine hydrochloride] | 0.012

same assay, conditions: CHO cell membranes expressing human 5-HT3 receptors, [3H]BRL 43694, 120 min at room temperature; read-out: h-5HT3 Ki

Row | Structure (SMILES) | Ki [µM]
7 | Fc1cc2cnc(NC3=NO[C@@]4(C3)CN3CCC4CC3)cc2cc1F [(R)-61, (R)—N-(6,7-difluoroisoquinolin-3-yl)-4H-1′-azaspiro[isoxazole-5,3′-bicyclo[2.2.2]octan]-3-amine hydrochloride] | > 10
8 | Cc1nc2ccc(NC3=NO[C@@]4(C3)CN3CCC4CC3)cc2s1 [(R)-50, (R)—N-(2-methylbenzo[d]thiazol-6-yl)-4H-1′-azaspiro[isoxazole-5,3′-bicyclo[2.2.2]octan]-3-amine hydrochloride] | 6.2
9 | Clc1cccc2cc(NC3=NO[C@@]4(C3)CN3CCC4CC3)ncc12 [(R)-23, (R)—N-(8-chloroisoquinolin-3-yl)-4H-1′-azaspiroksoxazole-5,3^1-bicyclo[2.2.2]octan1-3-amine hydrochloride] | 1.2
10 | FC(F)(F)c1cc2ccc(NC3=NO[C@@]4(C3)CN3CCC4CC3)cc2s1 [(R)-67, (R)—N-(2-(trifluoromethyl)benzo[b]thiophen-6-yl)-4H-1′-azaspiro[isoxazole-5,3′-bicyclo[2.2.2]octan]-3-amine hydrochloride] | > 10
11 | c1cc2nc(NC3=NOC4(C3)CN3CCC4CC3)sc2cc1C1CC1 (single isomer, unassigned) [Compound 15-P1, N-(6-cyclopropylbenzo[d]thiazol-2-yl)-4H-1′-azaspiro[isoxazole-5,3′-bicyclo[2.2.2]octan]-3-amine] | > 10
12 | Clc1cccc2nc(NC3=NO[C@@]4(C3)CN3CCC4CC3)sc12 [(R)-11, (R)—N-(7-chlorobenzo[d]thiazol-2-yl)-4H-1′-azaspiro[isoxazole-5,3′-bicyclo[2.2.2]octan]-3-amine] | 0.305
13 | FC(F)(F)c1ccc2cnc(NC3=NO[C@@]4(C3)CN3CCC4CC3)cc2c1 [(R)-83, (R)—N-(6-(trifluoromethypisoquinolin-3-yl)-4H-1′-azaspiro[isoxazole-5,3′-bicyclo[2.2.2]octan]-3-amine hydrochloride] | > 10
14 | Clc1ccc2nc(NC3=NO[C@@]4(C3)CN3CCC4CC3)ncc2c1 [(R)-48, (R)—N-(6-chloroquinazolin-2-yl)-4H-1′-azaspiro[isoxazole-5,3′-bicyclo[2.2.2]octan]-3-amine hydrochloride] | > 10
15 | Cc1cc2ccc(NC3=NO[C@@]4(C3)CN3CCC4CC3)cc2o1 [(R)-40, (R)—N-(2-methylbenzofuran-6-yl)-4H-1′-azaspiro[isoxazole-5,3′-bicyclo[2.2.2]octan]-3-amine hydrochloride] | > 10
16 | Clc1cccc2nc(NC3=NO[C@]4(C3)CN3CCC4CC3)sc12 [(S)-11, (S)—N-(7-chlorobenzo[d]thiazol-2-yl)-4H-1′-azaspiro[isoxazole-5,3′-bicyclo[2.2.2]octan]-3-amine] | 0.13
17 | Fc1c(Cl)sc2cc(NC3=NO[C@@]4(C3)CN3CCC4CC3)ccc12 [(R)-78, (R)—N-(2-chloro-3-fluorobenzo[b]thiophen-6-yl)-4H-1′-azaspiro[isoxazole-5,3′-bicyclo[2.2.2]octan]-3-amine hydrochloride] | > 10
18 | COc1ccc2cc(NC3=NO[C@@]4(C3)CN3CCC4CC3)ncc2c1 [(R)-46, (R)—N-(7-methoxyisoquinolin-3-yl)-4H-1′-azaspiro[isoxazole-5,3′-bicyclo[2.2.2]octan]-3-amine hydrochloride] | > 10
19 | c1ccc2nc(NC3=NO[C@@]4(C3)CN3CCC4CC3)ncc2c1 [(R)-22, (R)—N-(quinazolin-2-yl)-4H-1′-azaspiro[isoxazole-5,3′-bicyclo[2.2.2]octan]-3-amine hydrochloride] | 5.2
20 | Cc1ccc2cc(NC3=NO[C@@]4(C3)CN3CCC4CC3)ncc2c1 [(R)-59, (R)—N-(7-methylisoquinolin-3-yl)-4H-1′-azaspiro[isoxazole-5,3′-bicyclo[2.2.2]octan]-3-amine hydrochloride] | > 10
21 | Cc1coc2cc(NC3=NO[C@@]4(C3)CN3CCC4CC3)ccc12 [(R)-74, (R)—N-(3-methylbenzofuran-6-yl)-4H-1′-azaspiro[isoxazole-5,3′-bicyclo[2.2.2]octan]-3-amine hydrochloride] | > 10
22 | Fc1cc2cnc(NC3=NO[C@@]4(C3)CN3CCC4CC3)cc2cc1Cl [(R)-81, (R)—N-(6-chloro-7-fluoroisoquinolin-3-yl)-4H-1′-azaspiro[isoxazole-5,3^1-bicyclo[2.2.2]octan]-3-amine hydrochloride] | > 10
23 | Clc1cc2nc(NC3=NO[C@@]4(C3)CN3CCC4CC3)sc2cc1Cl [(R)-30, (R)—N-(5 ,6 - dichlor obenzo[d]thiazol-2-yl)-4H-1′-azaspiro[isoxazole-5,3′-bicyclo[2.2.2]octan]-3-amine hydrochloride] | > 10
24 | c1cc2sc(NC3=NO[C@@]4(C3)CN3CCC4CC3)nc2cc1C1CC1 [(R)-26, (R)—N -(5-cyclopropylbenzo[d]thiazol-2-yl)-4H-1′-azaspiro[isoxazole-5,3′-bicyclo[2.2.2]octan]-3-amine hydrochloride] | 3.1
25 | Clc1ccc2nc(NC3=NOC4(C3)CN3CCC4CC3)sc2c1 (single isomer, unassigned) [Compound 10-P2, N-(6-chlorobenzo[d]thiazol-2-yl)-4H-1′-azaspiro[isoxazole-5,3′-bicyclo[2.2.2]octan]-3-amine] | > 10
26 | Cn1ncc2cc(NC3=NO[C@@]4(C3)CN3CCC4CC3)ccc21 [(R)-65, (R)—N-(1-methyl-1H-indazol-5-yl)-4H-1′-azaspiro[isoxazole-5,3′-bicyclo[2.2.2]octan]-3-amine hydrochloride] | > 10
27 | Fc1sc2cc(NC3=NO[C@@]4(C3)CN3CCC4CC3)ccc2c1F [(R)-55, hydrochloride] | 2.2
28 | COc1ccc2cnc(NC3=NO[C@@]4(C3)CN3CCC4CC3)cc2c1 [(R)-47, (R)—N-(6-methoxyisoquinolin-3-yl)-4H-1′-azaspiro[isoxazole-5,3′-bicyclo[2.2.2]octan]-3-amine hydrochloride] | > 10
